Measurements from patent US5270186A, “Antitumor antibiotic BMY-42448” (Bristol-Myers Squibb Company, priority 1991, dated 1993).
Converted amounts (≈) assume the structure as drawn.

What was measured:
[1] = tested on: B-16 melanoma; assay: In vitro cytotoxicity, crystal violet staining; assay type: cell-based, murine; conditions: for IC50: Mus musculus, B16, 72 h, B-16 melanoma, 3 days with drug
Description: (§1) A 150 μl aliquot of culture media containing 3750 cells was plated into each well of a 96 well microtiter plate on day 0 and allowed to attach by incubation for 24 hours at 37° C. in a 5% carbon dioxide atmosphere. Drugs were then added to the top row of the wells and serially diluted down the plate (except for the untreated control column on each plate). The cells and drug were incubated together as above for 3 days. Following incubation, dead unattached cells and media were removed by inverting the plate. Cells that are undamaged by the drug remain attached to the plate. […] The fixing solution was removed by inverting the plate and the plates were air-dried.

[2] = tested on: HCT-116 colon; assay: In vitro cytotoxicity, crystal violet staining; assay type: cell-based, human; conditions: for IC50: Homo sapiens, 72 h, HCT-116 colon, 3 days with drug
Description: as §1

[3] = tested on: P388 tumor; assay: iv-implanted P388 tumor model; assay type: in vivo, murine (CDF1 female mice)
Description: BMY-42448 was tested in an iv-implanted P388 tumor model. In this model 1×10^6 cells are implanted intravenously in CDF1 female mice. […] Mitomycin C given iv once at 3.2 mg/kg on the day after tumor implant extended median survival to 12 days after tumor implant. BMY-42448 was toxic when administered iv at 10 mg/kg every other day for 3 doses beginning one day after tumor implant.

[4] = In vivo P388 murine leukemia model, ip implant / ip treatment; design: species or system murine (CDF1 female mice); conditions: mouse, p388 leukemia model; ip once a day for 5 days; read-out: maximum tolerated dose
Description: (§2) BMY-42448 was also tested in vivo in the P388 murine leukemia model. When 1×10^6 leukemia cells are implanted ip into CDF1 female mice, the median survival time for untreated controls was 10 days. […] Mice treated with 45 or 15 mg/kg BMY-42448 on the same schedule had median survival time of 13.5 and 13 days, respectively. Each drug treatment group consisted of 4 mice. The positive control reference drug, olivomycin A, was dosed at 0.4 and 0.2 mg/kg once a day for 5 days beginning one day after implant, with median survival times of 16.5 and 16 days, respectively. Both drugs were administered via the intraperitoneal route. Thus, BMY-42448 was active in the ip/ip P388 model with a maximum tolerated dose of 45 mg/kg.

[5] = tested on: P388 murine leukemia; assay: as above; design: species or system murine (CDF1 female mice); conditions: for median survival time: untreated controls 10 days
Description: as §2

| Molecule | IC50 [1] [µg/mL] | activity on the B-16 melanoma cell line compared with reference drug ([1]; compared with cisplatin) | IC50 [2] [µg/mL] | activity on the HCT-116 colon cancer line compared with reference drug ([2]; compared with mitomycin C) | median life span ([3]; 1.25 mg/kg iv every other day for 3 doses, untreated control 8 days) [days] | median life span ([3]; 2.5 mg/kg iv every other day for 3 doses, untreated control 8 days) [days] | median life span ([3]; 5 mg/kg iv every other day for 3 doses, untreated control 8 days) [days] | toxicity ([3]; 10 mg/kg iv every other day for 3 doses beginning one day after tumor implant) | activity in iv-implanted P388 model ([3]; 5, 2.5 or 1.25 mg/kg iv every other day for 3 doses) | MTD [4] [mg/kg] | median survival time ([5]; 15 mg/kg ip once a day for 5 days) [days] | median survival time ([5]; 45 mg/kg ip once a day for 5 days) [days] | outcome (drug toxicity) ([5]; 135 mg/kg ip once a day for 5 days beginning 1 day after tumor implant) | activity in the ip/ip P388 model ([5]; ip implant, ip treatment) | median survival time ([5]; 0.2 mg/kg ip once a day for 5 days) [days] | median survival time ([5]; 0.4 mg/kg ip once a day for 5 days) [days] | median survival ([3]; 3.2 mg/kg iv once on the day after tumor implant, untreated control 8 days) [days] |
| --- | --- | --- | --- | --- | --- | --- | --- | --- | --- | --- | --- | --- | --- | --- | --- | --- | --- |
| CCC1CC23OC(=O)C(=C2O)C(=O)C2(CC)C(C=CC4C(OC5CC(O)C(NC(=O)c6[nH]c(Cl)cc6Cl)C(C)O5)C(C)CCC42)CC=CCC=CC3(C)C=C1C(=O)O (stereo not shown) [BMY-42448] | 16 (≈ 19 µM) | equal to that of cisplatin | 0.25 (≈ 0.297 µM) | equivalent to that of mitomycin C | 8 | 8 | 8 | toxic | inactive | 45 | 13 | 13.5 | died of drug toxicity | active | – | – | – |
| olivomycin A [reference compound] | – | – | – | – | – | – | – | – | – | – | – | – | – | – | 16 | 16.5 | – |
| CO[C@@]12[C@H](COC(N)=O)C3=C(C(=O)C(C)=C(N)C3=O)N1C[C@@H]1N[C@@H]12 [Mitomycin C, reference compound] | 0.98 (≈ 2.93 µM) | – | 0.25 (≈ 0.748 µM) | – | – | – | – | – | – | – | – | – | – | – | – | – | 12 |
